Read-outs that look alike come from different tables or passages of the source.
Assays:
[1] = tested on: resistant green rice leafhopper (collected at Nakagawara); assay: Test 3: Effect on Resistant Green Rice Leafhopper; assay type: in vivo, Nephotettix cincticeps Uhler; conditions: Nephotettix cincticeps, 24 h, read-out: Mortality (%) Green Rice Leafhopper Collected at Nakagawara
Method: (§1) To a mixture of 20 parts of the compound of the present invention and 20 parts of Sorpol SM-200 (registered trademark for the product supplied by Toho Chemical Industrial Co., Ltd.) was added 60 parts of xylol, and the mixture was sufficiently blended. The obtained emulsifiable concentrate was diluted at a predetermined concentration with distilled water, and the obtained dilution was used.
(§2) Seedlings (having 2 to 3 leaves) of paddy rice were hydroponically cultured in a pot having a diameter of 5 cm. A chemical dilution having a concentration of 100 or 20 ppm, prepared in the same manner as described in Test 1, was applied with a sprayer at a rate of 3 ml per pot. The treated seedlings were air-dried and covered with a metal net cylinder, and female adults of resistant green rice leafhopper (collected at Nakagawara) and sensitive green rice leafhopper (collected at Chigasaki) were set, respectively, free in the pot at a density of 10 adults per pot. After of 24 hours, the numbers of killed and living adults were counted and the mortality was calculated. The test was made on three pots and the average value was calculated.

[2] = tested on: sensitive green rice leafhopper (collected at Chigasaki); assay: Test 3: Effect on Sensitive Green Rice Leafhopper; assay type: in vivo; conditions: Nephotettix cincticeps, female adults, 24 hours
Method: as §1, §2

[3] = Test 9: Toxicity Test (acute oral, mice); conditions: mouse, in vivo, po
Method: In the fish toxicity test, the test compound was dissolved in acetone to form a 1% solution, and a predetermined amount of the solution was used. In the mouse toxicity test, the test compound of the present invention was dissolved or suspended in corn oil, and a predetermined amount of the solution or suspension was used.
A predetermined amount of a solution or suspension of a test compound in corn oil was orally administered to male mice having a body weight of 19 to 23 g (0.2 ml per 10 g of the body weight). After 7 days, the number of killed mice was counted and the influences on the mice were examined.

[4] = tested on: Second-instar and fifth-instar larvae of tobacco cutworm; assay: Test 2: Tobacco Cutworm Larva Dipping Test; assay type: in vivo
Method: as §1
A dilution having a chemical concentration of 100 or 20 ppm was prepared in the same manner as described in Test 1.
Second-instar and fifth-instar larvae of tobacco cutworm were dipped in the dilution for 5 seconds, and the excessive dilution was removed by a filter paper. Then, the larvae were set free in a plastic cup and an artificial diet was supplied thereto. The cup was allowed to stand still in a thermostat chamber maintained at 25° C. After 24 hours, the numbers of the killed and living larvae were counted and the mortality was calculated. The test was made on three cups and the result was expressed by an average value.

[5] = tested on: third-instar larvae of diamond back moth; assay: Test 4: Effect on Diamond Back Moth; assay type: in vivo; conditions: Plutella xylostella, 24 hours
Method: as §1
Cabbage leaves were spread in a plastic cup, and 10 third-instar larvae of diamond back moth were set free in the cup.
A chemical dilution having a concentration of 100 or 20 ppm, prepared in the same manner as described in Test 1, was applied from an applicator at a rate of 3 ml per cup.
After scattering of the chemical dilution, the cup was covered, and after 24 hours, the numbers of killed and living larvae were counted and the mortality was calculated. The test was made on three cups and the average value was calculated.

green peach aphids = assay: Test 5: Effect on green peach Aphid; assay type: in vivo; conditions: Myzus persicae, 24 hours, mortality class, read-out: Insecticidal Activity
Method: as §1
Seedlings (having 3 to 4 leaves) of an eggplant grown on a pot were inoculated with green peach aphids and the insects were allowed to grow. The number of the insects was counted. A chemical dilution having a concentration of 100 ppm, prepared in the same manner as described in Test 1, was applied with a spray gun at a rate of 10 ml per pot. Then, the pot was placed in a glass green house. After 24 hours, the number of living insects was counted and the mortality was calculated.
The test was made on three pots, and the average value was calculated. In Table 6, mark "A" indicates a mortality higher than 95%, mark "B" indicates a mortality of 80 to 95%, mark "C" indicates a mortality of 50 to 80%, and mark "D" indicates a mortality lower than 50%.

two-spotted spider mite = assay: Test 6: Effect on Two-Spotted Spider mite adults; assay type: in vivo; conditions: Tetranychus urticae; 500 ppm; adults; 24 hours; read-out: Mortality (%)
Method: as §1
A kidney bean leaf disc perforated with a cork borer (15 mm in diameter) was placed on water-impreganated absorbent cotton (2 cm×2 cm), and 10 adults of two-spotted spider mite were set free. A chemical dilution having a concentration of 500 ppm was applied with an applicator in an amount of 3 ml.
The leaf disc-placed absorbent cotton was placed in a thermostat chamber maintained at 25° C. After 24 hours, the number of killed adults was counted and the mortality was calculated. The test was made on three leaf discs and the average value was calculated.

German cockroach = assay: Test 7: Effect on German Cockroach; assay type: in vivo; conditions: Blattella germanica, male adults, 24 hours, agonized and killed; for mortality at 10 mg/m2: 10 mg/m^2; for mortality at 50 mg/m2: 50 mg/m^2
Method: The bottom face of a high Petri dish having a diameter of 9 cm and a height of 9 cm was treated with 50 or 10 mg/m^2 of a test compound and the dish was air-dried. In order to prevent the adults from escaping from the dish, the inner wall of the dish was treated with butter. Then, 10 male adults of German cockroach were set free in each dish, and the dish was placed in a thermostat chamber maintained at 25° C. After 24 hours, the number of agonized and killed adults was counted. The test was made on two dishes and the average value was calculated.

[6] = 20 ppm, second-instar larvae, 24 hours, read-out: Mortality (%) Second-Instar Larvae
[7] = 100 ppm, second-instar larvae, 24 hours, read-out: Mortality (%) Second-Instar Larvae
[8] = topical, 24 h, read-out: Mortality (%) Fifth-Instar Larvae

| Structure (SMILES) | mortality at 20 ppm [1] [%] | mortality at 100 ppm [1] [%] | mortality at 20 ppm [2] [%] | mortality at 100 ppm [2] [%] | LD50 at 168 h [3] [mg/kg] | mortality at 20 ppm [4, 6] [%] | mortality at 100 ppm [4, 7] [%] | mortality at 20 ppm [4, 8] [%] | mortality at 100 ppm [4, 8] [%] | mortality at 20 ppm [5] [%] | mortality at 100 ppm [5] [%] | mortality at 100 ppm (green peach aphids) [%] | mortality at 500 ppm (two-spotted spider mite) [%] | mortality at 10 mg/m2 (German cockroach) [%] | mortality at 50 mg/m2 (German cockroach) [%] |
| --- | --- | --- | --- | --- | --- | --- | --- | --- | --- | --- | --- | --- | --- | --- | --- |
| COc1ccc(Oc2cc(COCC(C)(C)c3ccc(Cl)cc3)ccc2F)cc1 [Compound 13, 3-(4-Methoxyphenoxy)-4-fluorobenzyl 2-(4-chlorophenyl)-2-methylpropyl ether] | 70 | 100 | 50 | 100 | > 500 |  |  |  |  |  |  |  |  |  |  |
| CC(C)(COCc1ccc(F)c(Oc2ccccc2)c1)c1ccc(OC(F)F)cc1 [Compound 21, 3-Phenoxy-4-fluorobenzyl 2-(4-difluoromethoxyphenyl)-2-methylpropyl ether] | 100 | 100 | 100 | 100 |  | 100 | 100 | 100 | 100 | 100 | 100 | > 95 | 100 | 100 | 100 |
| CC(C)C(C)(COCc1ccc(F)c(Oc2ccccc2)c1)c1ccc(Cl)cc1 (stereo not shown) [Compound 25, 3-phenoxy-4-fluorobenzyl 2-(4-chlorophenyl)-2,3-dimethylbutyl ether] |  |  |  |  |  |  |  |  |  |  |  | 80 to 95 |  |  |  |
| CC(C)(COCc1ccc(F)c(Oc2ccccc2)c1)c1ccc(F)cc1 [Compound 29, 3-Phenoxy-4-fluorobenzyl 2-(4-fluorophenyl)-2-methylpropyl ether] | 100 | 100 | 100 | 100 | > 500 | 100 | 100 | 100 | 100 | 100 | 100 |  | 100 | 100 | 100 |
| CCC(COCc1ccc(F)c(Oc2cccc(Cl)c2)c1)c1ccc(Cl)cc1 (stereo not shown) [Compound 34, 3-(3-Chlorophenoxy)-4-fluorobenzyl 2-(4-chlorophenyl)-butyl ether] |  |  |  |  |  |  |  |  |  |  |  | 80 to 95 |  |  |  |
| CCC(CC)(COCc1ccc(F)c(Oc2ccccc2)c1)c1ccc(Cl)cc1 [Compound 35, 3-Phenoxy-4-fluorobenzyl 2-(4-chlorophenyl)-2-ethylbutyl ether] | 100 | 100 | 90 | 100 | > 500 |  |  |  |  |  |  |  |  |  |  |
| CCOCCOc1ccc(C(C)(C)COCc2ccc(F)c(Oc3ccccc3)c2)cc1 [Compound 39] |  |  |  |  | > 500 |  |  |  |  |  |  |  | 100 |  |  |
| CC(C)Oc1ccc(C(C)(C)COCc2ccc(F)c(Oc3ccccc3)c2)cc1 [Compound 41] | 100 | 100 | 100 | 100 |  | 100 | 100 | 100 | 100 | 100 | 100 | > 95 | 90 | 100 | 100 |
| CCSc1ccc(C(C)(C)COCc2ccc(F)c(Oc3ccccc3)c2)cc1 [Compound 42, 3-Phenoxy-4-fluorobenzyl 2-(4-ethylthiophenyl)-2-methylpropyl ether] |  |  |  |  |  |  |  |  |  | 100 | 100 | > 95 | 100 |  |  |
| CCOc1ccc(C(C)COCc2ccc(F)c(Oc3ccccc3)c2)cc1 (stereo not shown) [Compound 43] | 100 | 100 | 100 | 100 |  |  |  |  |  |  |  | > 95 |  | 100 | 100 |
| Cc1ccc2cc(C(C)(C)COCc3ccc(F)c(Oc4ccccc4)c3)ccc2c1 [Compound 44, 3-Phenoxy-4-fluorobenzyl 2-(6-methyl-2-naphthyl)-2-methylpropyl ether] | 100 | 100 | 100 | 100 |  |  |  |  |  |  |  | > 95 | 95 | 100 | 100 |
| CC(C)COc1ccc(C(C)(C)COCc2ccc(F)c(Oc3ccccc3)c2)cc1 [Compound 45] | 100 | 100 | 100 | 100 |  |  |  |  |  | 80 | 100 | > 95 |  | 90 | 100 |
| COc1ccc(C(C)(C)COCc2ccc(F)c(Oc3ccccc3)c2)cc1OC [Compound 56] |  |  |  |  | > 500 |  |  |  |  |  |  |  | 100 |  |  |
| CCOc1ccc(C(C)(C)COCc2ccc(F)c(Oc3ccccc3)c2)cc1Cl [Compound 59] | 100 | 100 | 100 | 100 | > 500 | 100 | 100 | 100 | 100 | 100 | 100 |  |  | 100 | 100 |
| CCOc1ccc(C(C)(C)COCc2ccc(F)c(Oc3ccccc3)c2)cc1OC [Compound 64] | 100 | 100 | 100 | 100 |  |  |  |  |  |  |  | > 95 | 100 | 100 | 100 |
| CCOc1ccc(C(C)(C)COCc2ccc(F)c(Oc3ccccc3)c2)cc1C [Compound 67] | 100 | 100 | 100 | 100 |  | 100 | 100 | 100 | 100 | 100 | 100 | > 95 | 100 | 100 | 100 |
